# Where a SMILES comes first, the peptide text is derived from it. Bridges are numbered along the chain shown (N, C = ends).
# Key:
# [1] = target: T1, human VIPR2 (Homo sapiens, UniProt P41587); assay: HitHunter cAMP assay, agonist mode; format: cell-based
# T1 construct: host or cells: CHO-K1
# T1 sequence (P41587 24-438): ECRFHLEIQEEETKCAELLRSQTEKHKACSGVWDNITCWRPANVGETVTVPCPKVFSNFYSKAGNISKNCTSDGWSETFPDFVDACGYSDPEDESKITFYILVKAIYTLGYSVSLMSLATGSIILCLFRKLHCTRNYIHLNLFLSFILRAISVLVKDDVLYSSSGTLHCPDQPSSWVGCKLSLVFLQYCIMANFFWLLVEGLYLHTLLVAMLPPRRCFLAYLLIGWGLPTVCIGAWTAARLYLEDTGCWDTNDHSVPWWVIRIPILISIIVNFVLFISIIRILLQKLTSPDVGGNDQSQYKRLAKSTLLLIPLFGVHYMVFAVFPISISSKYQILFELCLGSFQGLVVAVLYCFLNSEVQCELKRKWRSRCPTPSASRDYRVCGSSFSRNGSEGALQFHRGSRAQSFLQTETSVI
# Method: Evaluation of antagonist activities of peptides against VIP-VIPR1, VIP-VIPR2, and PACAP-PAC1 signaling pathways and agonistic activity of KS-133 at VIPR2 was carried out by Eurofins DiscoverX (Fremont, CA, United States). Intracellular calcium mobilization was monitored using a calcium-sensitive dye loaded in CHO-K1 cells expressing human VIPR1 (ITEM 86-0030P-2243AN), VIPR2 (ITEM 86-0030P-2244AN), and PAC1 (ITEM 86-0030P-2066AN). The cells were preincubated with antagonistic peptides for 30 min at room temperature in the dark. After addition of the ligand at EC80, calcium mobilization was immediately monitored by FLIPR Tetra for 2 min. Cyclic AMP production in CHO-K1 cells expressing human VIPR2 was evaluated using HitHunter® cAMP assays (antagonist mode: ITEM 86-0007P-2362AN; agonist mode: ITEM 86-0007P-2362AG). […] Cells were lysed and the cAMP content of the cell lysate was determined by the β-galactosidase-based enzyme fragment complementation assay ([Eglen, 2002]). […]
# FIGURE 3 Antagonistic/agonistic activities of peptides in the calcium influx and cAMP assays. […] In the calcium influx assay, after addition of ligand at EC80, calcium mobilization was monitored immediately (see details in the Methods section) (n = 4 wells for each treatment). […]
# Next, antagonistic and agonistic activities of KS-133 at VIPR2 were evaluated by a cAMP assay. […]
# [2] = Plasma and brain levels after intravenous administration; format: in vivo; conditions: mouse
# Excerpt: Generally, drug discovery to target molecules in the CNS is harder than in peripheral tissues. Molecule exchange between the periphery and CNS is strictly restricted by the blood−brain barrier (BBB), especially molecules with a molecular weight (MW) of >400 g/mol. In addition to the MW limit, CNS drugs need to have high lipophilicity to cross the BBB ([McMartin et al., 1987]; [Dong, 2018]), but high lipophilic small molecules likely have undesirable side effects by potential off-target binding. Conversely, the MW of KS-133 was 1558 g/mol, which would avoid off-target side effects by VIPR2-selective binding but would make it difficult to cross the BBB. […] However, it was unclear whether the alterations in CREB phosphorylation were due to directly effects of s.c. injection of Ro 25-1553 and KS-133 on VIPR2 in the CNS. […] Intranasal administration is an attractive route for drug delivery to the brain because it allows direct transport of drugs from the nasal cavity to the brain parenchyma by bypassing systemic circulation ([Thorne et al., 2004]; [Lochhead and Thorne, 2012]; [Iwasaki et al., 2019]). It has been reported that about 1% of an administered molecule enters the CNS without crossing the BBB by administration to the nasal cavity, even those with a MW of 1000 g/mol ([McMartin et al., 1987]; [Dong, 2018]). There are some reports that the BBB becomes leaky in patients with psychiatric disorders such as schizophrenia and ASD ([Patel and Frey, 2015]; [Najjar et al., 2017]; [Kealy et al., 2020]). […] In the future, to clarify the mechanism and routes of how administered KS-133 targets the CNS, detailed pharmacokinetic studies of KS-133 in healthy mice and disease model mice using s.c., i.n., and intravenous administrations will be needed.
# [3] = target: T2, human VIPR1 (Homo sapiens, UniProt P32241); assay: Calcium influx assay, antagonist activity against VIP-VIPR1 signaling; format: cell-based; conditions: ligand VIP (25 nM) at EC80; CHO-K1 cells; n = 4 wells, ± S.E.M; read-out: Ca influx assay [IC50 (nM)] VIPR1
# T2 construct: host or cells: CHO-K1
# T2 sequence (P32241 31-457): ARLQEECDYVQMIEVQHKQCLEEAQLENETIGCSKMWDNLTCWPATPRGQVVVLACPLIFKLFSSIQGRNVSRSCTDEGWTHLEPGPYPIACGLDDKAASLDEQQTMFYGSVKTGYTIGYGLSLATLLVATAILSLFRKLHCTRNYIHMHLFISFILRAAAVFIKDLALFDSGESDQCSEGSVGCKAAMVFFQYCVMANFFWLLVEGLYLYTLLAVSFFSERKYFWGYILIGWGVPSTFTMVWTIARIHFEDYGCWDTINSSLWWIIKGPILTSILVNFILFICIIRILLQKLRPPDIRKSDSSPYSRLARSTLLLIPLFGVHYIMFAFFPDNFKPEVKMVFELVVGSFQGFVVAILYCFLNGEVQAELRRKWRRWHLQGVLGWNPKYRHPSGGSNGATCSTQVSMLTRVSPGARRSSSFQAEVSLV
# Method: Evaluation of antagonist activities of peptides against VIP-VIPR1, VIP-VIPR2, and PACAP-PAC1 signaling pathways and agonistic activity of KS-133 at VIPR2 was carried out by Eurofins DiscoverX (Fremont, CA, United States). Intracellular calcium mobilization was monitored using a calcium-sensitive dye loaded in CHO-K1 cells expressing human VIPR1 (ITEM 86-0030P-2243AN), VIPR2 (ITEM 86-0030P-2244AN), and PAC1 (ITEM 86-0030P-2066AN). The cells were preincubated with antagonistic peptides for 30 min at room temperature in the dark. After addition of the ligand at EC80, calcium mobilization was immediately monitored by FLIPR Tetra for 2 min. Cyclic AMP production in CHO-K1 cells expressing human VIPR2 was evaluated using HitHunter® cAMP assays (antagonist mode: ITEM 86-0007P-2362AN; agonist mode: ITEM 86-0007P-2362AG). The cells were preincubated with antagonistic peptides for 30 min at room temperature. After addition of the ligand at EC80, cells were further incubated for 30 min at room temperature. Cells were lysed and the cAMP content of the cell lysate was determined by the β-galactosidase-based enzyme fragment complementation assay ([Eglen, 2002]). IC50 values were estimated by the following equation: IC50 = 10^[Log(A/B) × (50–D)/(C–D) + Log(B)], where A is the concentration at >50% inhibition, B is the concentration at <50% inhibition, C is the inhibition rate at concertation A, and D is the inhibition rate at concertation B.
# First, the antagonistic activities of parental VIpep-3, KS-132, KS-133 (monocyclic) (no bridging between Lys^7 and Asp^11), and KS-133 against human VIPR1, VIPR2, and PAC1 were evaluated by a calcium influx assay. After antagonistic peptide treatment for 30 min, ligand at a concentration of EC80 was added to the cells and then calcium signaling was measured.
# FIGURE 3 Antagonistic/agonistic activities of peptides in the calcium influx and cAMP assays. For evaluation of the antagonistic activity, the cells were preincubated with antagonistic peptides for 30 min. In the calcium influx assay, after addition of ligand at EC80, calcium mobilization was monitored immediately (see details in the Methods section) (n = 4 wells for each treatment). In the cAMP assay, after a 30 min incubation with the ligand at EC80, cAMP production in cells was measured (see details in the Methods section) (n = 4 wells for each treatment).
structure (smiles),measurement,setting,value
"CC[C@H](C)[C@H](NC(=O)[C@H](CC(C)C)NC(=O)[C@@H]1CC(=O)NCCCC[C@@H]2NC(=O)[C@@H]3CCCN3C(=O)[C@H](CC(C)C)NC(=O)[C@H](Cc3ccc(O)cc3)NC(=O)[C@@H]3CCCN3C(=O)[C@@H]3CCCN3C(=O)[C@@H](NC(C)=O)CSSC[C@H](NC(=O)[C@H](CC(C)C)NC(=O)[C@H](Cc3ccc(O)cc3)NC2=O)C(=O)N1)C(N)=O [KS-133, Ac-c[Cys-Pro-Pro-Tyr-Leu-Pro-c(Lys-Tyr-Leu-Cys]-Asp)-Leu-Ile-NH2] (Ac-CPPYLPKYLCDLI-NH2; disulfide 1-10; lactam 7-11)",cAMP assay (nM) Agonistic activity VIPR2,"[1]; agonist mode, CHO-K1 cells",">5,000 nM"
same,VIPR2 agonist activity,"[1]; cAMP assay, at high concentration of 5 μM",did not exhibit VIPR2 agonist activity
same,tissue level at time molar at 80 min,"[2]; brain, adult male ICR mice, 80 min after intravenous KS-133 1 nmol/g, n = 3, mean ± S.E.M., unpublished data",0.035 ± 0.005 nmol/g
same,Plasma elimination half-life,[2]; in vivo,less than an hour
same,level at time molar at 80 min,"[2]; plasma, adult male ICR mice, 80 min after intravenous KS-133 1 nmol/g, n = 3, mean ± S.E.M., unpublished data",2.78 ± 0.08 µM
same,IC50,[3],> 5000 nM

# — PMC8607231, “Generation of KS-133 as a Novel Bicyclic Peptide with a Potent and Selective VIPR2 Antagonist Activity that Counteracts Cognitive Decline in a Mouse Model of Psychiatric Disorders” (Frontiers in Pharmacology, 2021)
